Assay results as given in patent US7799803B2, “Hydroxamic acid compounds and methods of use thereof” (The Trustees of Columbia University in the City of New York, priority 2003, dated 2010).
Read-outs that look alike come from different tables or passages of the source.

How the values were obtained:
[1] = target: T1, histone deacetylase, subtype 1 (HDAC1) (Homo sapiens, UniProt Q13547); assay: HDAC1-Flag in vitro deacetylation assay; format: biochemical
T1 construct: Flag; made in house
Protocol: Novel compounds were tested for their ability to inhibit histone deacetylase, subtype 1 (HDAC1) using an in vitro deacetylation assay. The enzyme source for this assay was an epitope-tagged human HDAC1 complex immuno-purified from stably expressing mammalian cells. The substrate consisted of a commercial product containing an acetylated lysine side chain (Biomol, Plymouth Meeting, Pa.). Upon deacetylation of the substrate by incubation with the purified HDAC1 complex, a fluorophore is produced that is directly proportional to the level of deacetylation. Using a substrate concentration at the Km for the enzyme preparation, the deacetylation assay was performed in the presence of increasing concentrations of novel compounds to semi-quantitatively determine the concentration of compound required for 50% inhibition (IC50) of the deacetylation reaction.

[2] = tested on: human bladder carcinoma cell line, T24; assay: T24 cell-based proliferation assay; settings: T-24, T24 cells treated 72 hours, DNA quantitated with bisbenzamide, Table 3, read-out: Cell Growth Inhbition, IC50
Protocol: Proliferation The novel compounds of the present invention were tested for their ability to inhibit growth of the human bladder carcinoma cell line, T24. Cells were treated with compounds for 72 hours, lysed by freeze/thaw to expose the DNA, and then the DNA was quantitated using the intercalating dye, bisbenzamide (Sigma). Fluorescent intensity (ex 350λ em 460λ) was directly proportional to the number of cells per well. Fluorescence values from vehicle-treated cells were determined and used as 100%.

[3] = Table 4, additional compounds, n = 2, read-out: HDAC inhibition IC50
[4] = epitope-tagged human HDAC1 complex, substrate concentration at Km, Table 2, read-out: HDAC Inhibition IC50

T1 sequence (Q13547 whole entry): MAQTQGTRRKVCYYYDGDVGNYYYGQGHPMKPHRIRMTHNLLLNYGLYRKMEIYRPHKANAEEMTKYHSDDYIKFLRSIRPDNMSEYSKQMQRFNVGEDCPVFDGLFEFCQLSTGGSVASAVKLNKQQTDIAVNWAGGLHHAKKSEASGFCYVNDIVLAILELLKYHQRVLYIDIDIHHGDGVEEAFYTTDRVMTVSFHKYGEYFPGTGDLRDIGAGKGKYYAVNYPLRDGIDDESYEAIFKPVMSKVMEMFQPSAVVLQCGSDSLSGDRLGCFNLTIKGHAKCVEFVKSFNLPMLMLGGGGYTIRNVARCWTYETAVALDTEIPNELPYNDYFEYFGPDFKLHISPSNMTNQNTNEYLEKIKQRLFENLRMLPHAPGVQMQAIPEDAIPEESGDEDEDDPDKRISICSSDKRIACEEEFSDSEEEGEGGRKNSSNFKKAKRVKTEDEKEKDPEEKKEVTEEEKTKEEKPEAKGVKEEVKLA

SMILES	IC50 [1, 3]	IC50 [1, 4]	IC50 [2]
O=C(CCCCCC(C(=O)NCCc1ccccc1)C(=O)NCCc1ccccc1)NO [Compound 13]	186 ± 21.9 nM		
O=C(CCCCC[C@H](NC(=O)OCc1ccccc1)C(=O)NCc1ccccc1)NO [Compound 2]		37.4 nM	1400 nM
O=C(CCCCC[C@H](NC(=O)c1cccnc1)C(=O)NCc1ccccc1)NO [Compound 5]		150 nM	9200 nM
O=C(CCCCC[C@H](NC(=O)c1ccc2ccccc2n1)C(=O)NCc1ccccc1)NO [Compound 3]		52.7 nM	1700 nM
O=C(CCCCCC(C(=O)NCc1ccccc1)C(=O)NCc1ccccc1)NO [Compound 12]	156 ± 22.6 nM		
O=C(CCCCC[C@H](NC(=O)c1ccc2ccccc2n1)C(=O)Nc1ccc2ncccc2c1)NO [Compound 7]		54.5 nM	600 nM
O=C(CCCCC[C@H](NC(=O)OCc1ccccc1)C(=O)Nc1ccc2ncccc2c1)NO [Compound 6a, (S)-[6-HYDROXYCARBAMOYL-1-(QUINOLIN-6-YLCARBAMOYL)-HEXYL]-CARBAMIC ACID BENZYL ESTER]		5.9 nM	200 nM
O=C(CCCCC[C@H](NC(=O)c1ccccc1)C(=O)NCc1ccccc1)NO [Compound 4]		73 nM	3200 nM

Continued, values first:

IC50 [1, 3]	IC50 [1, 4]	IC50 [2]	SMILES
	4.1 nM	400 nM	O=C(CCCCC[C@H](NC(=O)c1cccnc1)C(=O)Nc1cccc2cccnc12)NO [Compound 9]
	41.8 nM	1400 nM	O=C(CCCCC[C@H](NC(=O)c1ccc2ccccc2n1)C(=O)Nc1cccc2cccnc12)NO [Compound 10]
	1.6 nM	1800 nM	O=C(CCCCC[C@H](NC(=O)c1cccnc1)C(=O)Nc1ccc2ncccc2c1)NO [Compound 8]
	12.7 nM	300 nM	O=C(CCCCC[C@H](NC(=O)c1ccccc1)C(=O)Nc1cccc2cccnc12)NO [Compound 11]
	1.8 nM	200 nM	O=C(CCCCC[C@H](NC(=O)c1ccccc1)C(=O)Nc1ccc2ncccc2c1)NO [Compound 6b, (2S)-2-BENZOYLAMINO-OCTANEDIOIC ACID 8-HYDROXYAMIDE 1-QUINOLIN-6-YLAMIDE]
